Measurements reported in ChEMBL document CHEMBL6074637, “Sidechain structure-activity relationships of cyclobutane-based small molecule αvβ3 antagonists” (RSC Med Chem, 2024).

Legend:
[1] = test system: SK-MEL-2; assay: Cytotoxicity against alphavbeta3-expressing human SK-MEL-2 cells assessed as reduction in cell viability measured after 96 hrs by MTT assay; format: toxicity, cell-based; settings: sk-mel-2, 96 h
[2] = target: T1, Integrin alpha-V/beta-3 (Homo sapiens) (UniProt P05106+P06756); assay: Antagonist activity at alphavbeta3 integrin-mediated human SK-MEL-2 cell adhesion to fibronectin at 50 uM incubated with cells for 4 hrs followed by incubation with fibronectin in humidified chamber for 1 hr followed by incubation for overnight at 37 degC by MTT assay; format: cell-based
[3] = Cytotoxicity against alphavbeta3-expressing human U-87 MG cells assessed as reduction in cell viability measured after 96 hrs by MTT assay; format: toxicity, cell-based; settings: u-87mg atcc
[4] = Toxicity in C57BL/6 immunocompetent mouse assessed as body weight upto 300 mg/kg, ip administered daily for 4 days; format: organism-based; settings: in vivo, 96 h, time 4 day
[5] = target: T1, Integrin alpha-V/beta-3 (Homo sapiens); assay: Antagonist activity at alphavbeta3 integrin-mediated human SK-MEL-2 cell adhesion to fibronectin at 5 uM incubated with cells for 4 hrs followed by incubation with fibronectin in humidified chamber for 1 hr followed by incubation for overnight at 37 degC by MTT assay; format: cell-based; settings: filed as antagonist

inhibition [5] | SMILES | Activity [1] | inhibition [2] | Activity [3] | Activity [4]
 | COC(=O)[C@H](CCNC(=O)[C@H]1C[C@@H](Cc2ccc3c(n2)NCCC3)C1)NS(=O)(=O)c1c(C)cc(C)cc1C | Toxic | Not determined; Greater Than 75% Inhibition In Initial Trial Experiment, Not Tested Further At This Concentration | Toxic | 
 | COC(=O)[C@H](CC(=O)N[C@H]1C[C@@H](CCc2ccc3c(n2)NCCC3)C1)NS(=O)(=O)c1c(C)cc(C)cc1C | Toxic |  | Toxic | 
 | COC(=O)[C@H](CCNC(=O)[C@H]1C[C@@H](Cc2ccc3c(n2)NCCC3)C1)NS(=O)(=O)c1ccccc1 | Toxic | Not determined; Greater Than 75% Inhibition In Initial Trial Experiment, Not Tested Further At This Concentration | Toxic | 
 | COC(=O)[C@H](CC(=O)N[C@H]1C[C@@H](CCc2ccc3cccnc3n2)C1)NS(=O)(=O)c1ccccc1 | Toxic |  | Toxic | 
 | O=C1C[C@H](NS(=O)(=O)c2ccccc2)C(=O)N1[C@H]1C[C@@H](CCc2ccc3cccnc3n2)C1 | Toxic |  | Toxic | 
 | COC(=O)[C@H](CCNC(=O)[C@H]1C[C@@H](CCc2ccc3c(n2)NCCC3)C1)NS(=O)(=O)c1c(C)cc(C)cc1C | Toxic | Not determined; Greater Than 75% Inhibition In Initial Trial Experiment, Not Tested Further At This Concentration | Toxic | 
 | CC(C)(C)OC(=O)C[C@H](NS(=O)(=O)c1ccccc1)C(=O)N[C@H]1C[C@@H](CCc2ccc3c(n2)NCCC3)C1 | Toxic |  |  | 
 | CNc1cccc(CC[C@H]2C[C@@H](C(=O)NC[C@H](NS(=O)(=O)c3c(C)cc(C)cc3C)C(=O)OC)C2)n1 | Toxic |  | Toxic | Non-toxic
 | COC(=O)[C@H](CCNC(=O)[C@H]1C[C@@H](Cc2ccc3cccnc3n2)C1)NS(=O)(=O)c1ccccc1 | Toxic |  | Toxic | 
 | COC(=O)[C@H](CCNC(=O)[C@H]1C[C@@H](CCc2ccc3cccnc3n2)C1)NS(=O)(=O)c1ccccc1 | Toxic | Not determined; Greater Than 75% Inhibition In Initial Trial Experiment, Not Tested Further At This Concentration |  | 
 | CNc1cccc(CC[C@H]2C[C@@H](C(=O)NC[C@H](NS(=O)(=O)c3ccccc3)C(=O)OC)C2)n1 | Toxic | Not determined; Greater Than 75% Inhibition In Initial Trial Experiment, Not Tested Further At This Concentration | Toxic | 
 | COC(=O)[C@H](CCNC(=O)[C@H]1C[C@@H](Cc2ccc3cccnc3n2)C1)NS(=O)(=O)c1c(C)cc(C)cc1C |  |  | Toxic | 
 | O=C(O)C[C@H](NS(=O)(=O)c1ccccc1)C(=O)N[C@H]1C[C@@H](CCc2ccc3c(n2)NCCC3)C1 | Toxic | Not determined; Greater Than 75% Inhibition In Initial Trial Experiment, Not Tested Further At This Concentration |  | 
 | COC(=O)[C@H](CC(=O)N[C@H]1C[C@@H](CCc2ccc3cccnc3n2)C1)NS(=O)(=O)c1c(C)cc(C)cc1C | Toxic |  | Toxic | 
 | COC(=O)[C@H](CC(=O)N[C@H]1C[C@@H](CCc2ccc3c(n2)NCCC3)C1)NS(=O)(=O)c1ccccc1 | Toxic |  | Toxic | 
 | CC(C)(C)OC(=O)C[C@H](NS(=O)(=O)c1ccccc1)C(=O)N[C@H]1C[C@@H](CCc2ccc3cccnc3n2)C1 | Toxic | Not determined; Greater Than 75% Inhibition In Initial Trial Experiment, Not Tested Further At This Concentration |  | 
 | O=C(O)C[C@H](NS(=O)(=O)c1ccccc1)C(=O)N[C@H]1C[C@@H](CCc2ccc3cccnc3n2)C1 | Toxic |  |  | 
 | O=C1C[C@H](NS(=O)(=O)c2ccccc2)C(=O)N1[C@H]1C[C@@H](CCc2ccc3c(n2)NCCC3)C1 | Toxic |  | Toxic | 
59.5% | COC(=O)[C@H](CNC(=O)[C@H]1C[C@@H](CCc2ccc3c(n2)NCCC3)C1)NS(=O)(=O)c1ccccc1 |  |  |  | 
 | Cc1cc(C)c(S(=O)(=O)N[C@H]2CC(=O)N([C@H]3C[C@@H](CCc4ccc5cccnc5n4)C3)C2=O)c(C)c1 | Toxic |  |  | 
 | COC(=O)[C@H](CCNC(=O)[C@H]1C[C@@H](CCc2ccc3c(n2)NCCC3)C1)NS(=O)(=O)c1ccccc1 | Toxic | Not determined; Greater Than 75% Inhibition In Initial Trial Experiment, Not Tested Further At This Concentration |  | 
 | Cc1cc(C)c(S(=O)(=O)N[C@H]2CC(=O)N([C@H]3C[C@@H](CCc4ccc5c(n4)NCCC5)C3)C2=O)c(C)c1 | Toxic |  |  | 
 | COC(=O)[C@H](CCNC(=O)[C@H]1C[C@@H](CCc2ccc3cccnc3n2)C1)NS(=O)(=O)c1c(C)cc(C)cc1C | Toxic | Not determined; Greater Than 75% Inhibition In Initial Trial Experiment, Not Tested Further At This Concentration | Toxic | 
